Measured values taken from ChEMBL document CHEMBL1201862, “PubChem BioAssay data set” (2004).
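The compound was tested at five concentrations on cells cultured in 96-well plates, with a 48-hour exposure period. GI50: concentration for 50% inhibition of growth.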 Activity calls are given as the source filed them. Rule as the data show it: active = GI50 up to about 1.1 µM and inactive = higher.

Columns and labels:
Assay in all cases: growth of human tumour cells (NCI), 48 h
786-0 = system: 786-0
ACHN = system: ACHN
COLO 205 = system: COLO 205
DU-145 = system: DU-145
EKVX = system: EKVX
IGROV-1 = system: IGROV-1
LOX IMVI = system: LOX IMVI
MDA-MB-231 = system: MDA-MB-231
MDA-N = system: MDA-N
Malme-3M = system: Malme-3M
NCI-H522 = system: NCI-H522
OVCAR-3 = system: OVCAR-3
OVCAR-4 = system: OVCAR-4
OVCAR-5 = system: OVCAR-5
SF-539 = system: SF-539
SK-MEL-5 = system: SK-MEL-5
SW-620 = system: SW-620
T47D = system: T47D
UACC-62 = system: UACC-62

Row | Structure (SMILES) | GI50 (786-0) | GI50 (ACHN) | GI50 (COLO 205) | GI50 (DU-145) | GI50 (EKVX) | GI50 (IGROV-1) | GI50 (LOX IMVI) | GI50 (MDA-MB-231) | GI50 (MDA-N) | GI50 (Malme-3M) | GI50 (NCI-H522) | GI50 (OVCAR-3) | GI50 (OVCAR-4) | GI50 (OVCAR-5) | GI50 (SF-539) | GI50 (SK-MEL-5) | GI50 (SW-620) | GI50 (T47D) | GI50 (UACC-62)
1 | C=C1CCC2CC1C(C(=O)c1c[nH]c3ccccc13)=NC2(C)C (stereo not given) | > 100 µM (inactive) | > 100 µM (inactive) | > 100 µM (inactive) | > 100 µM (inactive) | 77.3 µM (inactive) | > 100 µM (inactive) | > 100 µM (inactive) | > 100 µM (inactive) | > 100 µM (inactive) | > 100 µM (inactive) | > 100 µM (inactive) | > 100 µM (inactive) | > 100 µM (inactive) | > 100 µM (inactive) | > 100 µM (inactive) | > 100 µM (inactive) | > 100 µM (inactive) | 48.2 µM (inactive) | > 100 µM (inactive)
2 | CC(=O)NS(=O)(=O)c1ccc(NCc2cccc3c(=O)c4ccc(Cl)cc4oc23)cc1 | > 55.8 µM (inactive) | 38.5 µM (inactive) | > 57.7 µM (inactive) | 61 µM (inactive) | 38.3 µM (inactive) | 24.8 µM (inactive) | > 33.2 µM (inactive) | > 59 µM (inactive) | 42.6 µM (inactive) | 26.4 µM (inactive) | 27.4 µM (inactive) | 44.6 µM (inactive) | > 54.5 µM (inactive) | > 100 µM (inactive) | 17.1 µM (inactive) | 40.1 µM (inactive) | 34 µM (inactive) | > 92.3 µM (inactive) | 48 µM (inactive)
3 | COc1cc(-c2cc(OC)c(OC)c3ccc(Br)cc23)c2cc(Br)ccc2c1OC | 19.8 µM (inactive) | 22.1 µM (inactive) | 39.5 µM (inactive) | 29 µM (inactive) | 85.9 µM (inactive) | 23.9 µM (inactive) | 19.3 µM (inactive) | 22.4 µM (inactive) | 22.5 µM (inactive) | 24.1 µM (inactive) | 42.9 µM (inactive) | 21 µM (inactive) | 15 µM (inactive) | 15.9 µM (inactive) | 21.5 µM (inactive) | 32.3 µM (inactive) | 80.5 µM (inactive) | 31.6 µM (inactive) | 21.9 µM (inactive)
4 | C/C1=C/C(C)CC(C)OC(=O)C(C)NC(=O)C(Cc2ccc(O)c(I)c2)N(C)C(=O)C(C)NC(=O)C(C)C1 (stereo not given) | < 0.01 µM (active) | < 0.01 µM (active) | < 0.01 µM (active) | 0.0302 µM (active) | 0.0262 µM (active) | < 0.01 µM (active) | < 0.01 µM (active) | < 0.01 µM (active) | < 0.01 µM (active) | < 0.0242 µM (active) | < 0.01 µM (active) | < 0.01 µM (active) | < 0.01 µM (active) | 7.23 µM (inactive) | < 0.01 µM (active) | < 0.0133 µM (active) | < 0.01 µM (active) | 0.0653 µM (active) | < 0.0256 µM (active)
5 | Nc1nc2cc(CNc3ccc(C(=O)NC(CCC(=O)O)C(=O)O)cc3)ccc2nc1-c1ccccc1 (stereo not given) | > 10 µM (inactive) | > 10 µM (inactive) | > 10 µM (inactive) | > 10 µM (inactive) | > 10 µM (inactive) | > 10 µM (inactive) | > 10 µM (inactive) | > 10 µM (inactive) | > 10 µM (inactive) | > 10 µM (inactive) | > 10 µM (inactive) | > 10 µM (inactive) | > 10 µM (inactive) | > 10 µM (inactive) | > 10 µM (inactive) | > 10 µM (inactive) | > 10 µM (inactive) | > 10 µM (inactive) | > 10 µM (inactive)
6 | COC(=O)c1cc(C)ccc1/C=C1\Cc2c(C)cc(C)cc2C1=O | 14 µM (inactive) | 60.7 µM (inactive) | > 100 µM (inactive) | > 100 µM (inactive) | 41.5 µM (inactive) | 65.3 µM (inactive) | > 30.7 µM (inactive) | > 36.6 µM (inactive) | 25.5 µM (inactive) | > 63.4 µM (inactive) | 21.3 µM (inactive) | 70.6 µM (inactive) | 24.4 µM (inactive) | > 43.9 µM (inactive) | 15.6 µM (inactive) | > 100 µM (inactive) | > 100 µM (inactive) | > 97.3 µM (inactive) | 6.59 µM (inactive)
7 | CC(=O)OCCCCn1nncc1Cn1ccc(=O)n(Cc2cnnn2CCCCOC(C)=O)c1=O | > 100 µM (inactive) | > 100 µM (inactive) | > 100 µM (inactive) | > 100 µM (inactive) | > 100 µM (inactive) | > 100 µM (inactive) | > 100 µM (inactive) | > 100 µM (inactive) | > 100 µM (inactive) | > 100 µM (inactive) |  | > 100 µM (inactive) | > 100 µM (inactive) | > 100 µM (inactive) | > 100 µM (inactive) | > 100 µM (inactive) | > 100 µM (inactive) | > 100 µM (inactive) | > 10 µM (inactive)
8 | COc1cc2c(cc1O)CC[n+]1cc3c(OC)c(OC)ccc3cc1-2 | > 100 µM (inactive) | > 100 µM (inactive) | 72.4 µM (inactive) | > 100 µM (inactive) | > 100 µM (inactive) | > 100 µM (inactive) | > 100 µM (inactive) | > 100 µM (inactive) | > 100 µM (inactive) | 59.6 µM (inactive) | > 100 µM (inactive) | 59.4 µM (inactive) | > 100 µM (inactive) | > 100 µM (inactive) | > 100 µM (inactive) | 51.1 µM (inactive) | > 100 µM (inactive) | 94.4 µM (inactive) | > 100 µM (inactive)
9 | CCC1c2[nH]c3ccccc3c2C[C@H]2C(=O)NC(Cc3c[nH]c4ccccc34)C(=O)N12 (stereo not given in full) | 23.4 µM (inactive) | 29.4 µM (inactive) | 18.8 µM (inactive) | 37.7 µM (inactive) | 32 µM (inactive) | 24.4 µM (inactive) | 22.1 µM (inactive) | 17.1 µM (inactive) | 24.2 µM (inactive) | 18.4 µM (inactive) | 22.6 µM (inactive) | 18.2 µM (inactive) | 29.9 µM (inactive) | 25.8 µM (inactive) |  | 17.5 µM (inactive) | 38.5 µM (inactive) | 26.4 µM (inactive) | 15.5 µM (inactive)
10 | CCOC(=O)C1C(C)C2(C#N)C(=N)OC1(C)C2(C#N)C#N (stereo not given) | 66.7 µM (inactive) | 38.6 µM (inactive) | > 100 µM (inactive) | 78.5 µM (inactive) | > 100 µM (inactive) | 39.2 µM (inactive) | 26.8 µM (inactive) | > 100 µM (inactive) | 46.1 µM (inactive) | 77.3 µM (inactive) | 71.9 µM (inactive) |  |  | > 100 µM (inactive) | 47.2 µM (inactive) | 41.4 µM (inactive) | 84.7 µM (inactive) | 48.1 µM (inactive) | 46 µM (inactive)
11 | NCCCC(N)C(=O)O (stereo not given) | > 100 µM (inactive) | > 100 µM (inactive) | > 100 µM (inactive) | > 100 µM (inactive) | > 100 µM (inactive) | > 100 µM (inactive) | > 100 µM (inactive) | > 100 µM (inactive) | > 100 µM (inactive) | > 100 µM (inactive) | > 100 µM (inactive) | > 100 µM (inactive) | > 100 µM (inactive) | > 100 µM (inactive) |  | > 100 µM (inactive) | > 100 µM (inactive) | > 100 µM (inactive) | > 100 µM (inactive)
12 | Cc1cc2nc(N)n[n+]([O-])c2cc1C | > 100 µM (inactive) | > 100 µM (inactive) | > 100 µM (inactive) | > 100 µM (inactive) | > 100 µM (inactive) | > 100 µM (inactive) | > 100 µM (inactive) | > 100 µM (inactive) | > 100 µM (inactive) | > 100 µM (inactive) | > 100 µM (inactive) |  |  | > 100 µM (inactive) | > 100 µM (inactive) | > 100 µM (inactive) | > 100 µM (inactive) | > 100 µM (inactive) | > 100 µM (inactive)
13 | Cc1ccc([S+]([O-])CC(CF)OCn2cc(C)c(=O)[nH]c2=O)cc1 (stereo not given) | > 100 µM (inactive) | > 100 µM (inactive) | > 100 µM (inactive) | > 100 µM (inactive) |  | > 100 µM (inactive) | > 100 µM (inactive) | > 100 µM (inactive) | > 100 µM (inactive) | > 100 µM (inactive) | > 100 µM (inactive) | > 100 µM (inactive) | > 100 µM (inactive) | > 100 µM (inactive) | > 100 µM (inactive) | > 100 µM (inactive) | > 100 µM (inactive) | > 100 µM (inactive) | > 100 µM (inactive)
14 | CC1=[N+](C)CCCN1C | > 100 µM (inactive) | > 100 µM (inactive) | > 100 µM (inactive) | > 100 µM (inactive) | > 100 µM (inactive) | > 100 µM (inactive) | > 100 µM (inactive) | > 100 µM (inactive) | > 100 µM (inactive) | > 100 µM (inactive) | > 100 µM (inactive) | > 100 µM (inactive) | > 100 µM (inactive) | > 100 µM (inactive) | > 100 µM (inactive) | > 100 µM (inactive) | > 100 µM (inactive) | > 100 µM (inactive) | 
15 | CC(=O)OC(C#N)CC(C)(C)/[N+]([O-])=[N+](\[O-])C(C)(C)CC(C#N)OC(C)=O (stereo not given) | 10.6 µM (inactive) | 12.1 µM (inactive) | 15.7 µM (inactive) | 18 µM (inactive) | 16.7 µM (inactive) | 10.8 µM (inactive) | 11.1 µM (inactive) | 14.7 µM (inactive) | 14.3 µM (inactive) | 18.5 µM (inactive) | 8.47 µM (inactive) | 16.6 µM (inactive) | 17.6 µM (inactive) | 23 µM (inactive) |  | 16.1 µM (inactive) | 5.47 µM (inactive) | 15.5 µM (inactive) | 16.7 µM (inactive)
